Legend:
[1] = molecular target: T1, chicken BEST1 (bestrophin 1) (Gallus gallus, UniProt A0A8V0ZZU7); assay: cryo-EM structure with […] GABA; assay type: biochemical
T1 sequence (A0A8V0ZZU7 1-405): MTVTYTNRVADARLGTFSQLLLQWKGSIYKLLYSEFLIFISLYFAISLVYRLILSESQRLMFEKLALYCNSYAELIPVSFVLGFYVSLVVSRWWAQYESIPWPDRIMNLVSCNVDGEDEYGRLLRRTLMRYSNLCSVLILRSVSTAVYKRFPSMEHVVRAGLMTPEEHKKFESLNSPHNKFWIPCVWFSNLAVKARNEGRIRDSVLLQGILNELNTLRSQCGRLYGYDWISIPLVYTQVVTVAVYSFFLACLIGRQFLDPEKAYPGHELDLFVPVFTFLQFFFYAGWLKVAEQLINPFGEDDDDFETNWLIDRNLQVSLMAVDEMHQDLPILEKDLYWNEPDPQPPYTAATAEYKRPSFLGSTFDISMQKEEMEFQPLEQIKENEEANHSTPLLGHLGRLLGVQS

[2] = molecular target: the molecule itself; assay: cryo-EM structure

Q: For `NCCCC(=O)O` [GABA], which EC50 [1] is on record?
A: Its EC50 is about 2 mM.

B1: human BEST1 (spanning amino acids 1-398) (domain or fragment, UniProt O76090 1-398, looked up)
chain: MTITYTSQVANARLGSFSRLLLCWRGSIYKLLYGEFLIFLLCYYIIRFIYRLALTEEQQLMFEKLTLYCDSYIQLIPISFVLGFYVTLVVTRWWNQYENLPWPDRLMSLVSGFVEGKDEQGRLLRRTLIRYANLGNVLILRSVSTAVYKRFPSAQHLVQAGFMTPAEHKQLEKLSLPHNMFWVPWVWFANLSMKAWLGGRIRDPILLQSLLNEMNTLRTQCGHLYAYDWISIPLVYTQVVTVAVYSFFLTCLVGRQFLNPAKAYPGHELDLVVPVFTFLQFFFYVGWLKVAEQLINPFGEDDDDFETNWIVDRNLQVSLLAVDEMHQDLPRMEPDMYWNKPEPQPPYTAASAQFRRASFMGSTFNISLNKEEMEFQPNQEDEEDAHAGIIGRFLGLQS
Q: With B1 as the molecule, how does the “stoichiometry N” value [2] read?
A: Its value is 5.
